target: T1, ERR1 (also known as ERR-α or ERR-1) (Homo sapiens, UniProt P11474); assay: TR-FRET assay (disruption of co-activator peptide binding); type: biochemical; conditions: 6His-tagged ERR1 LBD, GST-hSRC2 co-activator polypeptide; average of 3 independent experiments
T1 sequence (P11474 193-421 limits assumed): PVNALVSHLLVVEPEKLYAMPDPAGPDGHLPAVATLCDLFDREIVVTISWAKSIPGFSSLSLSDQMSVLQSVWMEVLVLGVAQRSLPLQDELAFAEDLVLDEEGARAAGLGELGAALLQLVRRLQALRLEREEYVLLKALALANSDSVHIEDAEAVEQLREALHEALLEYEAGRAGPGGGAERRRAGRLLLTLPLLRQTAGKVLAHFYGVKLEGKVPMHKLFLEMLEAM
How it was run: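 Compound-induced loss of co-activator recruitment, read by time-resolved FRET (excitation 340 nm; 615 and 665 nm emission) after 4-18 h at 25 °C. Reagents: 6 nM ERR1LBD, 6 nM GST-SRC-2, 30 nM Eu cryptate, 7.5 nM XL665, pH 8 Tris buffer. Values: hyperbolic fits averaged over 3 independent runs.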

Row | EC50 | Structure (SMILES)
1 | 6 nM | COC[C@@H]1CN(C2=NC(=O)/C(=C/c3ccc4c(cnn4Cc4ccc(Cl)cc4C(F)(F)F)c3)S2)CCN1 [Example 209, 5-({1-[4-Chloro-2-(trifluoromethyl)benzyl]-1H-indazol-5-yl}methylidene)-2-[3-(S)-(methoxymethyl)piperazin-1-yl]-1,3-thiazol-4(5H)-one]
2 | 24.8 nM | COC[C@H]1CN(C2=NC(=O)/C(=C/c3ccc4c(cnn4Cc4ccc(C(F)(F)F)cc4C(F)(F)F)c3)S2)CCN1 [Example 210, 5-({1-[2,4-Bis(trifluoromethyl)benzyl]-1H-indazol-5-yl}methylidene)-2-[3-(R)-(methoxymethyl)piperazin-1-yl]-1,3-thiazol-4(5H)-one]
3 | 31 nM | COC[C@@H]1CN(C2=NC(=O)/C(=C/c3ccc4c(cnn4Cc4ccc(C(F)(F)F)cc4C(F)(F)F)c3)S2)CCN1 [Example 211, 5-({1-[2,4-Bis(trifluoromethyl)benzyl]-1H-indazol-5-yl}methylidene)-2-[3-(S)-(methoxymethyl)piperazin-1-yl]-1,3-thiazol-4(5H)-one]
4 | 20 nM | O=C1N=C(N2CCO[C@H](CO)C2)S/C1=C\c1ccc2c(cnn2Cc2ccc(Cl)cc2C(F)(F)F)c1 [Example 212, 5-({1-[4-Chloro-2-(trifluoromethyl)benzyl]-1H-indazol-5-yl}methylidene)-2-[2-(S)-(hydroxymethyl)morpholin-4-yl]-1,3-thiazol-4(5H)-one]
5 | 8 nM | O=C1N[C@@H]2C[C@H](CO1)N(C1=NC(=O)/C(=C/c3ccc4c(cnn4Cc4ccc(C(F)(F)F)cc4C(F)(F)F)c3)S1)C2 [Example 214, (1R,6R)-7-[5-({1-[2,4-Bis(trifluoromethyl)benzyl]-1H-indazol-5-yl}methylidene)-4-oxo-4,5-dihydro-1,3-thiazol-2-yl]-4-oxa-2,7-diazabicyclo[4.2.1]nonan-3-one]
6 | 48 nM | O=C1N=C(N2CCN(C(=O)C3CC3)[C@@H](CO)C2)S/C1=C\c1ccc2c(cnn2Cc2ccc(C(F)(F)F)cc2C(F)(F)F)c1 [Example 215, 5-({1-[2,4-Bis(trifluoromethyl)benzyl]-1H-indazol-5-yl}methylidene)-2-[4-(cyclopropylcarbonyl)-3-(R)-(hydroxymethyl)piperazin-1-yl]-1,3-thiazol-4(5H)-one]
7 | 15 nM | COC(=O)N1CCN(C2=NC(=O)/C(=C/c3ccc4c(cnn4Cc4ccc(C(F)(F)F)cc4C(F)(F)F)c3)S2)C[C@@H]1CO [Example 216, Methyl 4-[5-({1-[2,4-bis(trifluoromethyl)benzyl]-1H-indazol-5-yl}methylidene)-4-oxo-4,5-dihydro-1,3-thiazol-2-yl]-2-(R)-(hydroxymethyl)piperazine-1-carboxylate]
8 | 27 nM | N#Cc1nn(Cc2ccc(C(F)(F)F)cc2C(F)(F)F)c2ccc(/C=C3\SC(N4CCN[C@@H](CO)C4)=NC3=O)cc12 [Example 217, 1-[2,4-Bis(trifluoromethyl)benzyl]-5-({2-[3-(R)-(hydroxymethyl)piperazin-1-yl]-4-oxo-1,3-thiazol-5(4H)-ylidene}methyl)-1H-indazole-3-carbonitrile]
9 | 36 nM | N#Cc1nn(Cc2ccc(C(F)(F)F)cc2C(F)(F)F)c2ccc(/C=C3\SC(N4CCN[C@H](CO)C4)=NC3=O)cc12 [Example 218, 1-[2,4-Bis(trifluoromethyl)benzyl]-5-({2-[3-(S)-(hydroxymethyl)piperazin-1-yl]-4-oxo-1,3-thiazol-5(4H)-ylidene}methyl)-1H-indazole-3-carbonitrile]
10 | 23 nM | CN1CCN(C2=NC(=O)/C(=C/c3ccc4c(cnn4Cc4ccc(C(F)(F)F)cc4C(F)(F)F)c3)S2)CC1(C)C [Example 219, 5-({1-[2,4-Bis(trifluoromethyl)benzyl]-1H-indazol-5-yl}methylidene)-2-(3,3,4-trimethylpiperazin-1-yl)-1,3-thiazol-4(5H)-one]
11 | 21.4 nM | CC(C)(C)NC(=O)[C@@H]1CN(C2=NC(=O)/C(=C/c3ccc4c(cnn4Cc4ccc(C(F)(F)F)cc4C(F)(F)F)c3)S2)CCN1 [Example 220, 4-[5-({1-[2,4-Bis(trifluoromethyl)benzyl]-1H-indazol-5-yl}methylidene)-4-oxo-4,5-dihydro-1,3-thiazol-2-yl]-N-tert-butylpiperazine-2-(S)-carboxamide]
12 | 7 nM | CN1CCN(C2=NC(=O)/C(=C/c3ccc4c(cnn4Cc4ccc(Cl)cc4C(F)(F)F)c3)S2)CC1(C)C [Example 221, 5-({1-[4-Chloro-2-(trifluoromethyl)benzyl]-1H-indazol-5-yl}methylidene)-2-(3,3,4-trimethylpiperazin-1-yl)-1,3-thiazol-4(5H)-one]
13 | 20 nM | CN1CCN(C2=NC(=O)/C(=C/c3ccc4c(c3)c(C#N)nn4Cc3ccc(Cl)cc3C(F)(F)F)S2)CC1(C)C [Example 222, 1-[4-Chloro-2-(trifluoromethyl)benzyl]-5-{[4-oxo-2-(3,3,4-trimethylpiperazin-1-yl)-1,3-thiazol-5(4H)-ylidene]methyl}-1H-indazole-3-carbonitrile]
14 | 70 nM | N#Cc1nn(Cc2ccc(Cl)cc2C(F)(F)F)c2ccc(/C=C3\SC(N4CCN(CC5CC5)CC4)=NC3=O)cc12 [Example 224, 1-[4-Chloro-2-(trifluoromethyl)benzyl]-5-({2-[4-(cyclopropylmethyl)piperazin-1-yl]-4-oxo-1,3-thiazol-5(4H)-ylidene}methyl)-1H-indazole-3-carbonitrile]
15 | 18 nM | O=C1N=C(N2C[C@H](O)[C@@H](N3CCOCC3)C2)S/C1=C\c1ccc2c(cnn2Cc2ccc(C(F)(F)F)cc2C(F)(F)F)c1 [Example 225, (5Z)-5-({1-[2,4-Bis(trifluoromethyl)benzyl]-1H-indazol-5-yl}methylidene)-2-[(3S,4S)-3-hydroxy-4-morpholin-4-ylpyrrolidin-1-yl]-1,3-thiazol-4(5H)-one]
16 | 8 nM | CNC(=O)[C@H]1CN(C2=NC(=O)/C(=C/c3ccc4c(cnn4Cc4ccc(Cl)cc4C(F)(F)F)c3)S2)CCN1 [Example 226, (2R)-4-[5-({1-[4-Chloro-2-(trifluoromethyl)benzyl]-1H-indazol-5-yl}methylidene)-4-oxo-4,5-dihydro-1,3-thiazol-2-yl]-N-methylpiperazine-2-carboxamide]
17 | 15 nM | CNC(=O)[C@H]1CN(C2=NC(=O)/C(=C/c3ccc4c(cnn4Cc4ccc(C(F)(F)F)cc4C(F)(F)F)c3)S2)CCN1 [Example 227, (2R)-4-[5-({1-[2,4-Bis(trifluoromethyl)benzyl]-1H-indazol-5-yl}methylidene)-4-oxo-4,5-dihydro-1,3-thiazol-2-yl]-N-methylpiperazine-2-carboxamide]
18 | 26 nM | CC(C)(C)NC(=O)[C@@H]1CN(C2=NC(=O)/C(=C/c3ccc4c(cnn4Cc4ccc(Cl)cc4C(F)(F)F)c3)S2)CCN1 [Example 228, (2S)—N-tert-Butyl-4-[5-({1-[4-chloro-2-(trifluoromethyl)benzyl]-1H-indazol-5-yl}methylidene)-4-oxo-4,5-dihydro-1,3-thiazol-2-yl]piperazine-2-carboxamide]
19 | 580 nM | CC(C)(O)c1ccc(Cn2ncc3cc(/C=C4\SC(N5CCN[C@@H](CO)C5)=NC4=O)ccc32)c(Cl)c1 [Example 229, 5-({1-[2-Chloro-4-(1-hydroxy-1-methylethyl)benzyl]-1H-indazol-5-yl}methylidene)-2-[3-(R)-(hydroxymethyl)piperazin-1-yl]-1,3-thiazol-4(5H)-one]
